These results are taken from patent US11897875B2, “Deuterated Alpha5 subunit-selective negative allosteric modulators of gamma-aminobutyric acid type a receptors as fast acting treatment for depression and mood disorders” (UNIVERSITY OF MARYLAND, BALTIMORE, priority 2017, dated 2024).

SMILES strings stand for the structures.

Series [1] concerns rats subjected to chronic multimodal stress. Nature of the series: elevated plus maze. Particulars: NCGC-43 3 mg/kg or ketamine 20 mg/kg; 24 hours after injection. Format: in vivo, rat. The procedure:
In the elevated plus maze, rats were given a choice between spending time in one of two arms of an elevated cross-shaped maze (one arm closed and the other arm open), immediately after 14 days of chronic multimodal stress, and 24 hours after an injection of NCGC-43 (3 mg/kg) or ketamine (20 mg/kg). A control group was unstressed and received a vehicle injection (DMSO).

Series [2] has the same test system. Nature of the series: social interaction test in rats after chronic multimodal stress. Format: in vivo, rat. Particulars: single injection, NCGC-43 3 mg/kg or ketamine 20 mg/kg; 24 hours after injection. The procedure:
[…] In the social interaction test, rats were given a choice between spending time in a chamber with a novel caged juvenile rat and a chamber with an empty cage before commencing stress (baseline), immediately after 14 days of chronic multimodal stress, and 24 hours after an injection of NCGC-43 (3 mg/kg, gray), ketamine (20 mg/kg, orange), or vehicle (DMSO solution, blue). Social interaction computed as percent time spent with the novel animal. A control group received neither stress nor drug (yellow).

Series [3] shares this test system. Kind of series: sucrose preference test in rats under chronic multimodal stress. It is filed as in vivo, rat. Particulars: for sucrose preference (sucrose solution consumed as percentage of total): single injection, NCGC-43 3 mg/kg or ketamine 20 mg/kg, 24 hours, 7 days, 14 days after injection, stress continued. The procedure:
In the sucrose preference test, rats were given an overnight two bottle choice task (in which the sucrose solution consumption is shown as a percentage of the total solution consumed) before commencing stress (baseline), immediately after 14 days of chronic multimodal stress, and 24 hours, 7 days, and 14 days after an injection of NCGC-43 (3 mg/kg, gray), ketamine (20 mg/kg, orange), or vehicle (DMSO solution, blue), all while continuing with daily chronic multimodal stress. A control group received neither stress nor drug (yellow).

Series [4] deals with naïve rats and rats subjected to 14 days of chronic multimodal stress. Kind of series: forced swim test. Format: in vivo, rat. Particulars: for time the animals spent immobile / latency until the animals ceased to struggle and become immobile: NCGC-43 3 mg/kg or ketamine 20 mg/kg, 24 hours after injection; for time the animals spent immobile: vs stressed animals given vehicle (FIG. 6A); for latency until the animals ceased to struggle and become immobile: vs stressed animals given vehicle (FIG. 6B). The source says:
NCGC-43 and ketamine both exert an antidepressant-like response in this test. […] See also FIG. 6C and FIG. 6D.

In a further series the test system is human liver hepatocytes. Nature of the series: metabolic stability in human hepatocytes in vitro. It is filed as in vitro ADME. The source says: (§1) Table 1, below, presents data regarding the half-life of […] in rat and human liver hepatocytes, in vitro, showing an increase in half-life for the deuterated compounds. Stability improved more in human hepatocytes compared to rat hepatocytes, with variation between the hepatocyte studies. […] Longer half-life also allows less frequent dosing. […] Deuteration preferably is located at the site of metabolism, since installing deuterium atoms at the site of metabolism more readily increases the half-life of the compound.

A short description of series [5]: metabolic stability in human hepatocytes in vitro. Format: in vitro ADME. Particulars: human liver hepatocytes; human hepatocytes in vitro.
Text: as §1

For series [6] the following is noted: as a nootropic; cited from earlier work.
In another series the test system is rat liver hepatocytes. Nature of the series: metabolic stability in rat hepatocytes in vitro. It is filed as in vitro ADME. The note with it: 3 hours.
Text: as §1

The nature of series [7]: metabolic stability in rat hepatocytes in vitro. The note with it: rat liver hepatocytes. It is filed as in vitro ADME.
Text: as §1

Series [8] relates to rats subjected to chronic multimodal stress. Kind of series: open field test. Format: in vivo, rat. The note with it: 3 mg/kg. The procedure:
FIG. 4A is a schematic of the open field test. […] Behavioral measurements were made before commencing stress (baseline), immediately after 14 days of chronic multimodal stress, and 24 hours after an injection of NCGC-43 (3 mg/kg) or vehicle (DMSO solution).

As for `CNC1(c2ccccc2Cl)CCCCC1=O` (stereo not drawn) [ketamine, reference compound], the “percent of time spent in the closed arm” value in series [1] is “increased the percent of time the rat spent in the closed arm”. Also, in series [2], the “social interaction (percent time spent with the novel animal)” value was “restored their preference for interacting with a novel animal”. Besides, the “sucrose preference (sucrose solution consumed as percentage of total)” value in series [3] was “restored sucrose preference in a rapid (within 24 hours) and persistent (up to 14 days) manner”. For the same compound, in series [4], the “time the animals spent immobile” value is “a decrease in the time the animals spent immobile”; the “latency until the animals ceased to struggle and become immobile” value is listed as “an increase in the latency”.
A word on the half-life: it is how long it takes for the measured level to halve. A higher half-life goes with slow decline. Take `Cc1onc(-c2ccc(F)cc2)c1COc1ccc(C(=O)N2CCS(=O)(=O)CC2)cn1` [RG-1662, (1,1-Dioxidothiomorpholino)(6-((3-(4-fluorophenyl)-5-methylisoxazol-4-yl)methoxy)pyridin-3-yl)methanone, reference compound]: the “Percentage Remaining at 3 Hours” value is recorded as 83.7% with human liver hepatocytes (human hepatocytes in vitro) and 3.3% in the series on rat liver hepatocytes. Further, the figures for the half-life in [5] and in series [7] were 720 min and 36 min, respectively. The “efficacy in phase II clinical trials” value in [6] is on record as “not efficacious”. Further, the “safety in phase II clinical trials” value in series [6] was “safe”.
With `[2H]C([2H])([2H])c1onc(-c2ccc(F)cc2)c1COc1ccc(C(=O)N2CCS(=O)(=O)CC2)cn1` [NCGC-43, (1,1-dioxidothiomorpholino)(6-((3-(4-fluorophenyl)-5-(methyl-d3)isoxazol-4-yl)methoxy)pyridin-3-yl)methanone], in series [8] (24 hours after injection (FIG. 4B)), the overall locomotor activity result is “neither chronic stress nor injection of NCGC-43 or vehicle had any significant effects”. The “time spent in the corners and sides” value in series [8] (24 hours after injection (FIG. 4C)) is recorded as “neither chronic stress nor injection of NCGC-43 or vehicle had any significant effects”. Further, the “ratio of time spent in the center of the chamber to time spent in the corners/sides” value in series [8] (24 hours after injection (FIG. 4D)) is listed as “neither chronic stress nor injection of NCGC-43 or vehicle had any significant effects”. Also, the “latency before the animals first entered the center of the chamber” value in series [8] (24 hours after injection (FIG. 4E)) is given as “mildly decreased the latency”. Further, in the series with human liver hepatocytes (human hepatocytes in vitro), the “Half-life (hours)” value is given as “Stable” and the “Percentage Remaining at 3 Hours” value came out at 100%. For the same compound, in the series with human liver hepatocytes (rat and human hepatocytes in vitro, improved more in human), the “metabolic stability compared with non-deuterated RG-1662” value was “more metabolically stable”. In series [2], the “social interaction (percent time spent with the novel animal)” value was “restored their preference for interacting with a novel animal”. In the series on rat liver hepatocytes, the “Percentage Remaining at 3 Hours” value is listed as 3.9%. Moreover, the half-life in series [7] was 38.4 min. Also, the “antidepressant effects compared with ketamine” value in [3] (NCGC-43 3 mg/kg vs ketamine 20 mg/kg) was “comparable to ketamine”. Also, the “sucrose preference (sucrose solution consumed as percentage of total)” value in [3] is “restored sucrose preference in a rapid (within 24 hours) and persistent (up to 14 days) manner”. Further, in [4] (3 mg/kg, 1 hour vs 24 hours after injection), the “time course of effect (responses at 1 hour and 24 hours)” value was “rapid and persistent effects similar to those described previously for ketamine”. Besides, in series [4], the “time the animals spent immobile” value was “a decrease in the time the animals spent immobile”; the “latency until the animals ceased to struggle and become immobile” value is given as “an increase in the latency”. For the same compound, in series [4] (intraperitoneal, increasing doses, 1 or 24 hours after injection (FIG. 7)), the “latency to immobility, dose-response” value is “significant efficacy at 1 and 3 mg/kg”.
